“Also recorded” adds a separate entry of the source. Like-named read-outs stand apart in the source and are kept apart here.
How the values were obtained:
[1] = system: HBV; assay: Anti-HBV effects in the HBV transgenic mouse model; format: in vivo, HBV transgenic mice
Procedure: (§1) Compound I and Compound II were administered by once-daily oral gavage for 16 days to HBV transgenic mice which replicated HBV from a 1.3× overlength HBV genome integrated into the mouse genome. Expression occurred mostly in hepatocytes.
Treatment Groups (n=8/Group):
After 16 days of dosing, livers and serum were harvested and the following parameters were measured: a) HBV DNA by quantitative PCR (liver and serum) b) HBsAg by ELISA (liver and serum) c) HBeAg by ELISA (serum)

[2] = system: HBV DNA replication in DE19 cells; assay: Inhibition of intracellular HBV DNA replication in HepDE19 cells (PCR); format: cell-based; details: Hepatitis B virus, HepDE19, read-out: IC50 for Compound I, DE19 cells
Procedure: (§2) The antiviral activity of Compound I and Compound II towards HBV was tested in various cell lines (HepAD38, HepDE19 and HepDES19). The HepAD38 cell line is derived from the HepG2 cell line and engineered to stably maintain HBV (see Ladner et al., Antimicrobial Agents and Chemotherapy, 1997, 41, 1715-1720, which is incorporated herein by reference in its entirety). DE19 and DES19 cell lines are human hepatoma derived cell lines (see Guo et al. J. Virol 2007, 81, 12472-84, which is incorporated herein by reference in its entirety). Active HBV replication in the cells was suppressed by inclusion of tetracycline in the cell culture medium, which binds to a tetracycline-sensitive promoter, and induced by removal of tetracycline. HBV replication was quantified by measuring the amount of HBV DNA in the cells.
(§3) Compound I and Compound II were applied to induced cells (i.e., cells without tetracycline), either alone or in combination at various concentrations. Next, intracellular DNA was isolated and HBV DNA was measured by polymerase chain reaction (PCR). The percent inhibition of HBV DNA was examined over the concentration ranges of 0-320 nM for Compound I and 0-640 nM for Compound II. Concentration versus effect curves were constructed for both drugs (FIGS. 1A and 1B, 2A and 2B, and 3A and 3B). […] See FIGS. 1B, 2B, and 3B (curves where [Compound II]=0).
(§4) The level of reduction in intracellular HBV DNA by the various combinations of Compound I and II as plotted in FIGS. 1 A and 1B, 2A and 2B, and 3A and 3B, was analyzed using the Shipman-Prichard synergy scoring program (MacSynergy™ II program, Prichard et al. Antiviral Research 1990), wherein the experimentally observed effect of each combination is compared to the theoretical, additive inhibition. The comparison is used to determine combination scores (effect volumes) that represent either synergistic (positive scores) or antagonistic (negative scores) effects. All the positive and negative scores are summed to calculate overall synergy and antagonism scores that reflect the entire concentration spectrum of the two drugs. The magnitude of the scores reflect the degree of synergism/antagonism and the likelihood of the synergistic/antagonistic activities being important in vivo, according to the following four categories: (1) Synergy/Antagonism Volume=0-25 (log volume <2): insignificant synergy/antagonism (i.e., only additive effects); (2) Synergy/Antagonism Volume=25-50 (log volume 2-5): minor but significant amount of synergy/antagonism; (3) Synergy/Antagonism Volume=50-100 (log volume 5-9): moderate synergy/antagonism that may be important in vivo; (4) Synergy/Antagonism Volume >100 (log volume >9): stronger synergy/antagonism that is probably important in vivo. IC50 values for Compound I in combination with different concentrations of Compound II, and Compound II in combination with different concentrations of Compound I, are presented in Tables 6 and 7, respectively.

[3] = system: HBV DNA replication in DES19 cells; assay: Inhibition of intracellular HBV DNA replication in HepDES19 cells (PCR); format: cell-based; details: Hepatitis B virus, HepDES19, read-out: IC50 for Compound I, DES19 cells
Procedure: as §2, §3, §4

[4] = Compound I concentration in serum by liquid chromatography-mass spectrometry; format: in vivo, HBV transgenic mice; details: 3-hr post-dose on Day 16 of dosing; FIG. 11
Procedure: as §1
Compound I Concentrations were Measured by Liquid Chromatography-Mass Spectrometry (Serum)

[5] = system: HBV DNA replication in HepAD38 cells; assay: Inhibition of intracellular HBV DNA replication in HepAD38 cells (PCR); format: cell-based; details: Hepatitis B virus, HePAD38, read-out: IC50 for Compound I, AD38 cells
Procedure: as §2, §3, §4

[6] = system: HBV DNA replication in AD38, DES19 and DE19 cells; assay: In vitro combination study, statements covering AD38, DES19 and DE19 cells together; format: cell-based, hepatitis B virus; details: Compound I 5-320 nM and/or Compound II 10-640 nM; FIGS. 1-3
Procedure: The antiviral activity of Compound I and Compound II towards HBV was tested in various cell lines (HepAD38, HepDE19 and HepDES19). […] Active HBV replication in the cells was suppressed by inclusion of tetracycline in the cell culture medium, which binds to a tetracycline-sensitive promoter, and induced by removal of tetracycline. HBV replication was quantified by measuring the amount of HBV DNA in the cells.
The comparison is used to determine combination scores (effect volumes) that represent either synergistic (positive scores) or antagonistic (negative scores) effects. All the positive and negative scores are summed to calculate overall synergy and antagonism scores that reflect the entire concentration spectrum of the two drugs. […]

## CC[C@@H]1NC(=O)C([C@H](O)[C@H](C)CCCCCCNC(C)=O)N(C)C(=O)[C@@H](C(C)C)N(C)C(=O)[C@H](CC(C)C)N(C)C(=O)[C@H](CC(C)C)N(C)C(=O)[C@H](C)NC(=O)[C@H](C)NC(=O)[C@@H](CC(C)C)N(C)C(=O)[C@H](C(C)C)NC(=O)[C@H](CC(C)C)N(C)C(=O)[C@H](C)N(C)C1=O (stereo partly shown) [Compound I]
[1]; alone or in combination, oral, 16 days, FIG. 8
  liver HBsAg: did not affect
[1]; alone or in combination, oral, 16 days, FIG. 9
  serum HBV DNA: did not affect
[1]; alone or in combination, oral, 16 days, FIG. 10
  serum HBeAg: did not affect
[1]; high-dose Compound I (50 mg/kg/day), oral, 16 days, FIG. 7
  serum HBsAg: decreased serum HBsAg; also recorded: able to lower serum HBsAg levels
[1]; once-daily oral gavage 16 days, Compound I 10 or 50, Compound II 5 or 10 mg/kg/day, combination 10+5, FIG. 6
  liver HBV DNA (copies per mg liver): decreased liver HBV DNA; also recorded: highly efficacious
[2]; Compound II 0 nM
  IC50: 32.9 nM
[2]; Compound II 10 nM
  IC50: 29.5 nM
[2]; Compound II 20 nM
  IC50: 26 nM
[2]; Compound II 40 nM
  IC50: 27.3 nM
[2]; Compound II 80 nM
  IC50: 27.8 nM
[2]; Compound II 160 nM
  IC50: 33.6 nM
[2]; Compound II 320 nM
  IC50: 37.5 nM
[2]; Compound II 640 nM
  IC50: 23.3 nM
[3]; Compound II 0 nM
  IC50: 33.4 nM
[3]; Compound II 10 nM
  IC50: 29.1 nM
[3]; Compound II 20 nM
  IC50: 27.2 nM
[3]; Compound II 40 nM
  IC50: 26.4 nM
[3]; Compound II 80 nM
  IC50: 27.8 nM
[3]; Compound II 160 nM
  IC50: 34.7 nM
[3]; Compound II 320 nM
  IC50: 32.4 nM
[3]; Compound II 640 nM
  IC50: 22.9 nM
[4]
  serum Compound I concentration: correlated with the effects of Compound I on HBV DNA and HBsAg
[5]; Compound II 0 nM
  IC50: 32.1 nM
[5]; Compound II 10 nM
  IC50: 31 nM
[5]; Compound II 20 nM
  IC50: 26.5 nM
[5]; Compound II 40 nM
  IC50: 29.9 nM
[5]; Compound II 80 nM
  IC50: 29.5 nM
[5]; Compound II 160 nM
  IC50: 34.5 nM
[5]; Compound II 320 nM
  IC50: 38.2 nM
[5]; Compound II 640 nM
  IC50: 21 nM
[6]
  intracellular HBV DNA compared to induced cells in the absence of the drug: reduced intracellular HBV DNA in a concentration-dependent manner

— patent US20180296588A1, “COMBINATION THERAPY FOR TREATING VIRAL INFECTIONS” (ContraVir Pharmaceuticals, Inc., priority 2017, published 2018)
